From US20070049564A1 (Wyeth, priority 2005, published 2007)
≈ marks a conversion by molar mass, not a printed value. Where two headings read alike, the source gives them in different places.

Legend:
[1] = tested on: E. coli GC 2231; test: MIC, broth microdilution; conditions: Escherichia coli
[2] = tested on: E. faecalis GC 2267; test: MIC, broth microdilution; conditions: Enterococcus faecalis
[3] = tested on: S. aureus GC 4536; test: MIC, broth microdilution; conditions: Staphylococcus aureus
[4] = tested on: E. faecalis GC 4555; test: MIC, broth microdilution; conditions: Enterococcus faecalis
[5] = tested on: S. aureus GC 1131; test: MIC, broth microdilution; conditions: Staphylococcus aureus
[6] = tested on: c. albicans GC 3066; test: MIC, broth microdilution
[7] = tested on: E. faecalis GC 2265; test: MIC, broth microdilution; conditions: Enterococcus faecalis
[8] = tested on: S. pneumoniae* GC 4465; test: MIC, broth microdilution; conditions: Streptococcus pneumoniae
[9] = tested on: E. coli GC 2232; test: MIC, broth microdilution; conditions: Escherichia coli
[10] = tested on: S. aureus GC 2216; test: MIC, broth microdilution; conditions: Staphylococcus aureus
[11] = tested on: E. coli; test: Range of MIC for E. coli strains; conditions: Escherichia coli
[12] = tested on: E. coli GC 2272; test: MIC, broth microdilution; conditions: Escherichia coli
[13] = tested on: E. faecium GC 2243; test: MIC, broth microdilution; conditions: Enterococcus faecium
[14] = tested on: S. pneumoniae+ GC 4465; test: MIC, broth microdilution; conditions: Streptococcus pneumoniae
[15] = tested on: P. aeruginosa GC 2214; test: MIC, broth microdilution; conditions: Pseudomonas aeruginosa
[16] = tested on: E. coli GC 2236; test: MIC, broth microdilution; conditions: Escherichia coli
[17] = tested on: Staph.; test: Range of MIC for Staph. strains, including MRSA; conditions: Staphylococcus aureus
[18] = tested on: E. faecalis GC 2242; test: MIC, broth microdilution; conditions: Enterococcus faecalis
Procedure: Antimicrobial susceptibility testing. The in vitro activities of the antibiotics are determined by the broth microdilution method as recommended by the National Committee for Clinical Laboratory Standards (NCCLS) (1). Mueller-Hinton II broth (MHBII)(BBL Cockeysville, Md.) is the medium employed in the testing procedures. Microtiter plates containing serial dilutions of each antimicrobial agent are inoculated with each organism to yield the appropriate density (10^5 CFU/ml) in a 100 μl final volume. The plates are incubated for 18-22 hours at 35° C. in ambient air.
Representative compounds were first incubated in mouse serum for an hour prior to the in vitro testing against a panel of selected gram-positive and gram-negative bacteria strains. All compounds were also pre-incubated in water for an hour prior to testing as control. Representative compounds of Formula I were incubated in human serum prior to MIC determination.

[19] = tested on: S. epidermidis GC 4935; test: MIC, broth microdilution; conditions: Staphylococcus epidermidis
[20] = GC2231, pre-incubation in human serum
[21] = GC2231, pre-incubation in mouse serum
[22] = GC2231, pre-incubation in water
[23] = GC2267, pre-incubation in human serum
[24] = GC2267, pre-incubation in mouse serum
[25] = GC2267, pre-incubation in water
[26] = GC4536, pre-incubation in human serum
[27] = GC4536, pre-incubation in mouse serum
[28] = GC4536, pre-incubation in water
[29] = GC4555, pre-incubation in human serum
[30] = GC4555, pre-incubation in mouse serum
[31] = GC4555, pre-incubation in water
[32] = GC1131, pre-incubation in human serum
[33] = GC1131, pre-incubation in mouse serum
[34] = GC1131, pre-incubation in water
[35] = GC2265, pre-incubation in human serum
[36] = GC2265, pre-incubation in mouse serum
[37] = GC2265, pre-incubation in water
[38] = GC2232, pre-incubation in human serum
[39] = GC2232, pre-incubation in mouse serum
[40] = GC2232, pre-incubation in water
[41] = GC2216, pre-incubation in human serum
[42] = GC2216, pre-incubation in mouse serum
[43] = GC2216, pre-incubation in water
[44] = 20 h, read-out: Range of MIC, E. coli (Mouse Serum)
[45] = read-out: Minimum inhibitory concentration (MIC), E. coli (Human Serum)
[46] = GC2272, pre-incubation in human serum
[47] = GC2272, pre-incubation in mouse serum
[48] = GC2272, pre-incubation in water
[49] = GC2243, pre-incubation in human serum
[50] = GC2243, pre-incubation in mouse serum
[51] = GC2243, pre-incubation in water
[52] = GC2214, pre-incubation in human serum
[53] = GC2214, pre-incubation in mouse serum
[54] = GC2214, pre-incubation in water
[55] = GC2236, pre-incubation in human serum
[56] = GC2236, pre-incubation in mouse serum
[57] = GC2236, pre-incubation in water
[58] = MRSA, read-out: Range of MIC, Staph (Mouse Serum)
[59] = read-out: Minimum inhibitory concentration (MIC), Staph (Human Serum)
[60] = read-out: Minimum inhibitory concentration (MIC), Staph (Water)
[61] = GC2242, pre-incubation in human serum
[62] = GC2242, pre-incubation in mouse serum
[63] = GC2242, pre-incubation in water
[64] = GC4935, pre-incubation in human serum
[65] = GC4935, pre-incubation in mouse serum
[66] = GC4935, pre-incubation in water

CCCCC(=O)OCOC(=O)N(CC(=O)Nc1cc(N(C)C)c2c(c1O)C(=O)C1=C(O)[C@]3(O)C(=O)C(C(N)=O)=C(O)[C@@H](N(C)C)[C@@H]3C[C@@H]1C2)C(C)(C)C [Example 61, ({[(2-{[(5aR,6aS,7S,10aS)-9-(aminocarbonyl)-4,7-bis(dimethylamino)-1,8,10a,11-tetrahydroxy-10,12-dioxo-5,5a,6,6a,7,10,10a,12-octahydrotetracen-2-yl]amino}-2-oxoethyl)(tert-butyl)amino]carbonyl}oxy)methyl pentanoate]
MIC [1, 20]: 8 mg/L (≈ 10.8 µM) | MIC [1, 21]: 1 mg/L (≈ 1.34 µM) | MIC [1, 22]: 32 mg/L (≈ 43 µM) | MIC [2, 23]: 2 mg/L (≈ 2.69 µM) | MIC [2, 24]: 0.5 mg/L (≈ 0.672 µM) | MIC [2, 25]: 2 mg/L (≈ 2.69 µM) | MIC [3, 26]: 0.5 mg/L (≈ 0.672 µM) | MIC [3, 27]: 0.5 mg/L (≈ 0.672 µM) | MIC [3, 28]: 0.5 mg/L (≈ 0.672 µM) | MIC [4, 29]: 2 mg/L (≈ 2.69 µM) | MIC [4, 30]: 1 mg/L (≈ 1.34 µM) | MIC [4, 31]: 2 mg/L (≈ 2.69 µM) | MIC [5, 32]: 0.5 mg/L (≈ 0.672 µM) | MIC [5, 33]: 0.5 mg/L (≈ 0.672 µM) | MIC [5, 34]: 0.5 mg/L (≈ 0.672 µM) | MIC ([6]; Candida albicans, GC3066): > 64 mg/L | MIC ([6]; pre-incubation in human serum): >64 UG/ML | MIC ([6]; pre-incubation in mouse serum): >64 UG/ML | MIC [7, 35]: 2 mg/L (≈ 2.69 µM) | MIC [7, 36]: 0.5 mg/L (≈ 0.672 µM) | MIC [7, 37]: 2 mg/L (≈ 2.69 µM) | MIC ([8]; pre-incubation in human serum): 0.25 mg/L (≈ 0.336 µM) | MIC ([8]; pre-incubation in mouse serum): 0.12 mg/L (≈ 0.161 µM) | MIC ([8]; pre-incubation in water): 0.12 mg/L (≈ 0.161 µM) | MIC [9, 38]: 4 mg/L (≈ 5.38 µM) | MIC [9, 39]: 0.5 mg/L (≈ 0.672 µM) | MIC [9, 40]: 16 mg/L (≈ 21.5 µM) | MIC [10, 41]: 0.5 mg/L (≈ 0.672 µM) | MIC [10, 42]: 0.5 mg/L (≈ 0.672 µM) | MIC [10, 43]: 1 mg/L (≈ 1.34 µM) | MIC [11, 44]: 0.5 to 1 mg/L (≈ 0.672 to 1.34 µM) | MIC [11, 45]: 4 to 32 mg/L (≈ 5.38 to 43 µM) | MIC [12, 46]: 4 mg/L (≈ 5.38 µM) | MIC [12, 47]: 0.5 mg/L (≈ 0.672 µM) | MIC [12, 48]: 8 mg/L (≈ 10.8 µM) | MIC [13, 49]: 1 mg/L (≈ 1.34 µM) | MIC [13, 50]: 0.25 mg/L (≈ 0.336 µM) | MIC [13, 51]: 0.5 mg/L (≈ 0.672 µM) | MIC ([14]; pre-incubation in human serum): 0.5 mg/L (≈ 0.672 µM) | MIC ([14]; pre-incubation in mouse serum): 0.5 mg/L (≈ 0.672 µM) | MIC ([14]; pre-incubation in water): 0.5 mg/L (≈ 0.672 µM) | MIC [15, 52]: > 64 mg/L | MIC [15, 53]: 8 mg/L (≈ 10.8 µM) | MIC [15, 54]: > 64 mg/L | MIC [16, 55]: 4 mg/L (≈ 5.38 µM) | MIC [16, 56]: 0.5 mg/L (≈ 0.672 µM) | MIC [16, 57]: 16 mg/L (≈ 21.5 µM) | MIC [17, 58]: 0.25 to 0.5 mg/L (≈ 0.336 to 0.672 µM) | MIC ([17]; MRSA, read-out: Range of MIC, Staph (Water)): 0.5 to 2 mg/L (≈ 0.672 to 2.69 µM) | MIC [17, 59]: 0.5 to 1 mg/L (≈ 0.672 to 1.34 µM) | MIC [17, 60]: 0.5 to 2 mg/L (≈ 0.672 to 2.69 µM) | MIC [18, 61]: 2 mg/L (≈ 2.69 µM) | MIC [18, 62]: 0.5 mg/L (≈ 0.672 µM) | MIC [18, 63]: 2 mg/L (≈ 2.69 µM) | MIC [19, 64]: 1 mg/L (≈ 1.34 µM) | MIC [19, 65]: 0.5 mg/L (≈ 0.672 µM) | MIC [19, 66]: 1 mg/L (≈ 1.34 µM)

CN(C)c1cc(NC(=O)CN(C(=O)OCOC(=O)C2CCC2)C(C)(C)C)c(O)c2c1C[C@H]1C[C@H]3[C@H](N(C)C)C(O)=C(C(N)=O)C(=O)[C@@]3(O)C(O)=C1C2=O [Example 62, ({[(2-{[(5aR,6aS,7S,10aS)-9-(aminocarbonyl)-4,7-bis(dimethylamino)-1,8,10a,11-tetrahydroxy-10,12-dioxo-5,5a,6,6a,7,10,10a,12-octahydrotetracen-2-yl]amino}-2-oxoethyl)(tert-butyl)amino]carbonyl}oxy)methyl cyclobutanecarboxylate]
MIC [1, 20]: 4 mg/L (≈ 5.39 µM) | MIC [1, 21]: 0.5 mg/L (≈ 0.674 µM) | MIC [1, 22]: 8 mg/L (≈ 10.8 µM) | MIC [2, 23]: 0.5 mg/L (≈ 0.674 µM) | MIC [2, 24]: 0.5 mg/L (≈ 0.674 µM) | MIC [2, 25]: 1 mg/L (≈ 1.35 µM) | MIC [3, 26]: 0.5 mg/L (≈ 0.674 µM) | MIC [3, 27]: 0.5 mg/L (≈ 0.674 µM) | MIC [3, 28]: 0.5 mg/L (≈ 0.674 µM) | MIC [4, 29]: 0.5 mg/L (≈ 0.674 µM) | MIC [4, 30]: 1 mg/L (≈ 1.35 µM) | MIC [4, 31]: 1 mg/L (≈ 1.35 µM) | MIC [5, 32]: 0.5 mg/L (≈ 0.674 µM) | MIC [5, 33]: 0.5 mg/L (≈ 0.674 µM) | MIC [5, 34]: 0.5 mg/L (≈ 0.674 µM) | MIC ([6]; Candida albicans, GC3066): > 64 mg/L | MIC ([6]; pre-incubation in human serum): >64 UG/ML | MIC ([6]; pre-incubation in mouse serum): >64 UG/ML | MIC [7, 35]: 0.5 mg/L (≈ 0.674 µM) | MIC [7, 36]: 0.5 mg/L (≈ 0.674 µM) | MIC [7, 37]: 1 mg/L (≈ 1.35 µM) | MIC ([8]; pre-incubation in human serum): 0.12 mg/L (≈ 0.162 µM) | MIC ([8]; pre-incubation in mouse serum): 0.12 mg/L (≈ 0.162 µM) | MIC ([8]; pre-incubation in water): 0.12 mg/L (≈ 0.162 µM) | MIC [9, 38]: 2 mg/L (≈ 2.7 µM) | MIC [9, 39]: 1 mg/L (≈ 1.35 µM) | MIC [9, 40]: 8 mg/L (≈ 10.8 µM) | MIC [10, 41]: 0.5 mg/L (≈ 0.674 µM) | MIC [10, 42]: 0.5 mg/L (≈ 0.674 µM) | MIC [10, 43]: 0.5 mg/L (≈ 0.674 µM) | MIC [11, 44]: 0.5 to 2 mg/L (≈ 0.674 to 2.7 µM) | MIC [11, 45]: 2 to 8 mg/L (≈ 2.7 to 10.8 µM) | MIC [12, 46]: 4 mg/L (≈ 5.39 µM) | MIC [12, 47]: 1 mg/L (≈ 1.35 µM) | MIC [12, 48]: 8 mg/L (≈ 10.8 µM) | MIC [13, 49]: 0.5 mg/L (≈ 0.674 µM) | MIC [13, 50]: 0.5 mg/L (≈ 0.674 µM) | MIC [13, 51]: 0.5 mg/L (≈ 0.674 µM) | MIC ([14]; pre-incubation in human serum): 0.5 mg/L (≈ 0.674 µM) | MIC ([14]; pre-incubation in mouse serum): 1 mg/L (≈ 1.35 µM) | MIC ([14]; pre-incubation in water): 0.5 mg/L (≈ 0.674 µM) | MIC [15, 52]: > 64 mg/L | MIC [15, 53]: 16 mg/L (≈ 21.6 µM) | MIC [15, 54]: > 64 mg/L | MIC [16, 55]: 8 mg/L (≈ 10.8 µM) | MIC [16, 56]: 0.5 mg/L (≈ 0.674 µM) | MIC [16, 57]: 4 mg/L (≈ 5.39 µM) | MIC [17, 58]: 0.5 to 1 mg/L (≈ 0.674 to 1.35 µM) | MIC [17, 59]: 0.5 mg/L (≈ 0.674 µM) | MIC [17, 60]: 0.25 to 1 mg/L (≈ 0.337 to 1.35 µM) | MIC [18, 61]: 0.5 mg/L (≈ 0.674 µM) | MIC [18, 62]: 0.5 mg/L (≈ 0.674 µM) | MIC [18, 63]: 0.5 mg/L (≈ 0.674 µM) | MIC [19, 64]: 0.5 mg/L (≈ 0.674 µM) | MIC [19, 65]: 0.5 mg/L (≈ 0.674 µM) | MIC [19, 66]: 0.5 mg/L (≈ 0.674 µM)
